A short description of assay [1]: Evaluation of the sweetness detection threshold (8 panelists rate sweet / not sweet). As to conditions: at a 1 ppm level. It counts as in vivo, human. From the text: The phrase “sweetness detection threshold” refers to the minimum concentration at which panelists consisting of 8 persons are able to detect sweetness in a composition, liquid or solid. This is further defined as provided in the Examples herein.
Threshold of sweetness refers to a concentration of a material that below a concentration where sweetness can be detected may still impart a flavor to the consumable (including water). When half of a trained panel of testers determines something is “sweet” at a given concentration, then the sample meets the threshold. When less than half of a panel of testers cannot discern sweetness at a given concentration, then concentrations of the substance below the sweetness level are considered a flavoring.
To evaluate the sweetness potency of various concentrations of GMG or MGV in aqueous solutions, aqueous solutions of GMG and MGV at various concentrations were prepared and were evaluated at room temperature. The sample solutions were evaluated by 8 panelists that were previously qualified for their taste acuity. Samples coded with triple digit numbers were given to a panelist randomly. Panelists tasted the samples randomly. After tasting a sample, every panelist was required to wash their mouth with water and rest for 60 seconds. Panelists gave ratings of “sweet” or “not sweet” to each sample.

Assay [2] can be described thus: Evaluation of taste profile compared to reference sugar solutions by panel (Example 3 method). It counts as in vivo, human. Conditions: inclusion of thaumatin. Here is the method:
I. The components where mixed and then dissolved in aqueous citric acid (pH 3.8) with ultrasound at room temperature and left to equilibrate for 30 minutes.
The sample solutions were evaluated by 8 panelists that have been previously qualified for their taste acuity. Samples coded with triple digit numbers were given to the panelist randomly. Panelists tasted the samples randomly. After tasting a sample, every panelist was required to rinse their mouth with water and rest for 60 seconds. For the sweetness evaluation of each sample, the sample was tested in pairs with several sugar solutions of given sweetness, such as 5%, 6%, 7%, 8%, 9%, or 10% as standard reference samples. The sweetness of each sample was compared with those of the reference sugar solutions, and the sweetness was evaluated and recorded according to the judgment that the sweetness of the sample was similar to a specific sugar solution or between specific sugar solutions. The results were recorded as the mean value of the results provided by the panels.
For evaluation of taste profile, the samples were tested and were compared to reference sugar solutions. Panelists judged if the taste profile of sample solutions were similar to that of sugar.

For assay [3] the following is noted: pure thaumatin; cited from earlier work.

As for thaumatin, in assay [1], the “sweetness imparted to a composition” value is “no sweetness”. Also, in assay [2], the “taste profile of MGV” value is given as “improved”. Further, the sweetness threshold in assay [3] is given as 7 ppm.

The values above are taken from patent publication US11766060B2, “Compositions comprising mogrosides, steviol glycosides and glycosylated derivatives thereof and methods of enhancing the mouthfeel or sweetness of consumables” (Sweet Green Fields, LLC, priority 2016, dated 2023).
